Assay results published in patent publication US10555987B2, “GHRH agonists for the treatment of ischemic disorders” (UNIVERSITY OF MIAMI, priority 2012, dated 2020).
Non-standard residues stand in square brackets, D forms with d. Residues, ends and D or L forms follow the SMILES beside them. ξ: configuration not given here. *: point of attachment. Phe(F5) = N[C@@H](Cc1c(F)c(F)c(F)c(F)c1F)C(=O)O; Desaminotyrosyl = O=C(CCc1ccc(O)cc1)*; NMeY = CN[C@@H](Cc1ccc(O)cc1)C(=O)O; Nle = CCCC[C@H](N)C(=O)O; Orn = NCCC[C@H](N)C(=O)O; Abu = CC[C@H](N)C(=O)O; GABA = NCCCC(=O)O; ξA = CC(N)C(=O)O

Tests used:
[1] = tested on: GH release; test: In vivo endocrine activity, GH release after subcutaneous administration (Table 9); settings: rat, subcutaneous (s.c.) injection
Protocol: Subcutaneous Administration. Adult male rats were used and anesthetized with pentobarbital (6 mg/100 g, b.w.), by i.p. injection. […] Blood samples were taken from the jugular vein 5, 15 and/or 30 minutes after the injection. The blood samples were centrifuged, plasma was removed and the GH level was measured byELISA. The results are summarized in terms of potency in Table 9.

[2] = target: T1, GHRH receptor (Homo sapiens, UniProt Q02643); test: GHRH receptor binding, competition with 125I-labeled JV-1-42, human pituitary membrane homogenates (Table 7); design: Normal human pituitaries were purchased from the National Hormone and Peptide Program; tissue National Hormone and Peptide Program (A.F. Parlow, Harbor-UCLA Medical Center, Torrance, Calif.); host or cells: normal human pituitary, membrane fraction; settings: JI-38 = 1, Table 7
T1 sequence (Q02643 23-423): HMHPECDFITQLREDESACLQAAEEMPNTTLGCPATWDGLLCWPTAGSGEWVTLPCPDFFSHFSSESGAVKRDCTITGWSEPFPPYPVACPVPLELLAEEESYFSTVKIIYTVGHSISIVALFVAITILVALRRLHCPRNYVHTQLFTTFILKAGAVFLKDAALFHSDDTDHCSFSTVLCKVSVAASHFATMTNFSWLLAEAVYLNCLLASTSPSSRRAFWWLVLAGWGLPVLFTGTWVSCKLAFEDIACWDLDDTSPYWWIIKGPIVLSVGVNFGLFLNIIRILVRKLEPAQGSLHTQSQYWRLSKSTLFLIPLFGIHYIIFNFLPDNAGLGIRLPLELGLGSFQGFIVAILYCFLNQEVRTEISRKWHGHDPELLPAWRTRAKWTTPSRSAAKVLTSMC
Description: Normal human pituitaries were purchased from the National Hormone and Peptide Program (A.F. Parlow, Los Angeles, County Harbor-UCLA Medical Center, Torrance, Calif.).

| Relative affinity (Binding potency) vs JI-38 [2] | SMILES | GH releasing potency relative to JI-38 (=1) ([1]; 15 min after) | GH releasing potency relative to JI-38 (=1) ([1]; 30 min after) |
| --- | --- | --- | --- |
| 1.30 | CCCC[C@H](NC(=O)[C@@H](NC(=O)[C@H](CC(=O)O)NC(=O)[C@H](CCC(N)=O)NC(=O)[C@H](CC(C)C)NC(=O)[C@H](CC(C)C)NC(=O)[C@H](CCCN)NC(=O)[C@H](CCCNC(=N)N)NC(=O)[C@H](C)NC(=O)[C@H](CO)NC(=O)[C@H](CC(C)C)NC(=O)[C@H](CCC(N)=O)NC(=O)[C@H](CC)NC(=O)[C@H](CC(C)C)NC(=O)[C@@H](NC(=O)[C@H](CCCN)NC(=O)[C@H](CCCNC(=N)N)NC(=O)[C@H](Cc1ccc(O)cc1)NC(=O)[C@H](CO)NC(=O)[C@H](CC(N)=O)NC(=O)[C@@H](NC(=O)[C@H](Cc1ccccc1)NC(=O)[C@@H](NC(=O)[C@H](C)NC(=O)[C@H](CC(=O)O)NC(=O)[C@@H](C)NC(=O)CCc1ccc(O)cc1)[C@@H](C)CC)[C@@H](C)O)C(C)C)[C@@H](C)CC)C(=O)N[C@@H](CC(=O)O)C(=O)N[C@@H](CCCNC(=N)N)C(=O)NC [Peptide P-27400, [Dat^1, D-Ala^2, Orn^12, Abu^15, Orn^21, Nle^27, Asp^28]hGHRH(1-29)NH—CH3] (Desaminotyrosyl-[dA]DAIFTNSYR[Orn]VL[Abu]QLSAR[Orn]LLQDI[Nle]DR-NHMe) | 0.47 | 0.38 |
| 1.78 | CCCC[C@H](NC(=O)[C@@H](NC(=O)[C@H](CC(=O)O)NC(=O)[C@H](CCC(N)=O)NC(=O)[C@H](CC(C)C)NC(=O)[C@H](CC(C)C)NC(=O)[C@H](CCCN)NC(=O)[C@H](Cc1c[nH]cn1)NC(=O)[C@H](C)NC(=O)[C@H](CO)NC(=O)[C@H](CC(C)C)NC(=O)[C@H](CCC(N)=O)NC(=O)[C@H](CC)NC(=O)[C@H](CC(C)C)NC(=O)[C@@H](NC(=O)[C@H](CCCN)NC(=O)[C@H](Cc1c[nH]cn1)NC(=O)[C@H](Cc1ccc(O)cc1)NC(=O)[C@H](CO)NC(=O)[C@H](CCC(N)=O)NC(=O)[C@@H](NC(=O)[C@H](Cc1ccccc1)NC(=O)[C@@H](NC(=O)[C@H](C)NC(=O)[C@H](CC(=O)O)NC(=O)C(C)NC(=O)CCc1ccc(O)cc1)[C@@H](C)CC)[C@@H](C)O)C(C)C)[C@@H](C)CC)C(=O)N[C@@H](CC(=O)O)C(=O)N[C@@H](CCCNC(=N)N)C(=O)NC (stereo partly drawn) [Peptide P-27413, [Dat^1, Gln^8, His^11, Orn^12, Abu^15, His^20, Orn^21, Nle^27, Asp^28]hGHRH(1-29)NH—CH3] (Desaminotyrosyl-[ξA]DAIFTQSYH[Orn]VL[Abu]QLSAH[Orn]LLQDI[Nle]DR-NHMe) | 0.36 | 0.57 |
| 2.79 | CCCC[C@H](NC(=O)[C@@H](NC(=O)[C@H](CC(=O)O)NC(=O)[C@H](CCC(N)=O)NC(=O)[C@H](CC(C)C)NC(=O)[C@H](CC(C)C)NC(=O)[C@H](CCCN)NC(=O)[C@H](CCCNC(=N)N)NC(=O)[C@H](C)NC(=O)[C@H](CO)NC(=O)[C@H](CC(C)C)NC(=O)[C@H](CCC(N)=O)NC(=O)[C@H](CC)NC(=O)[C@H](CC(C)C)NC(=O)[C@@H](NC(=O)[C@H](CCCN)NC(=O)[C@H](CCCNC(=N)N)NC(=O)[C@H](Cc1ccc(O)cc1)NC(=O)[C@H](CO)NC(=O)[C@H](CC(N)=O)NC(=O)[C@@H](NC(=O)[C@H](Cc1c(F)c(F)c(F)c(F)c1F)NC(=O)[C@@H](NC(=O)[C@H](C)NC(=O)[C@H](CC(=O)O)NC(=O)[C@@H](C)NC(=O)[C@H](Cc1ccc(O)cc1)NC)[C@@H](C)CC)[C@@H](C)O)C(C)C)[C@@H](C)CC)C(=O)N[C@@H](CO)C(=O)N[C@@H](CCCNC(=N)N)C(=O)NCCCC(=O)NC [Peptide P-27414, [N—Me-Tyr^1, D-Ala^2, Fpa5^6, Orn^12, Abu^15, Orn^21, Nle^27, Gab^30]hGHRH(1-30)NH—CH3] (H-[NMeY][dA]DAI[Phe(F5)]TNSYR[Orn]VL[Abu]QLSAR[Orn]LLQDI[Nle]SR[GABA]-NHMe) | 1.30 | 1.23 |
| 1.44 | CCCC[C@H](NC(=O)[C@@H](NC(=O)[C@H](CC(=O)O)NC(=O)[C@H](CCC(N)=O)NC(=O)[C@H](CC(C)C)NC(=O)[C@H](CC(C)C)NC(=O)[C@H](CCCN)NC(=O)[C@H](CCCNC(=N)N)NC(=O)[C@H](C)NC(=O)[C@H](CO)NC(=O)[C@H](CC(C)C)NC(=O)[C@H](CCC(N)=O)NC(=O)[C@H](CC)NC(=O)[C@H](CC(C)C)NC(=O)[C@@H](NC(=O)[C@H](CCCN)NC(=O)[C@H](CCCNC(=N)N)NC(=O)[C@H](Cc1ccc(O)cc1)NC(=O)[C@H](CO)NC(=O)[C@H](CC(N)=O)NC(=O)[C@@H](NC(=O)[C@H](Cc1ccccc1)NC(=O)[C@@H](NC(=O)[C@H](C)NC(=O)[C@H](CC(=O)O)NC(=O)[C@H](C)NC(=O)[C@H](Cc1ccc(O)cc1)NC)[C@@H](C)CC)[C@@H](C)O)C(C)C)[C@@H](C)CC)C(=O)N[C@@H](CO)C(=O)N[C@@H](CCCNC(=N)N)C(=O)NCCCC(=O)NC [Peptide P-27415, [N—Me-Tyr^1, Orn^12, Abu^15, Orn^21, Nle^27, Gab^30]hGHRH(1-30)NH—CH3] (H-[NMeY]ADAIFTNSYR[Orn]VL[Abu]QLSAR[Orn]LLQDI[Nle]SR[GABA]-NHMe) | 0.45 | 0.41 |
